In ChEMBL document CHEMBL3352223, “Synthesis, anti-cancer and anti-inflammatory activity of novel 2-substituted isoflavenes” (Bioorg Med Chem, 2014) one finds IC50 and inhibition data, which are given here for 13 molecules.

Assay [1] can be described thus: Antiproliferative activity against human SHEP cells after 72 hrs by Alamar blue/spectrophotometric analysis. It is filed as functional, cell-based.
A further assay has as its system MDA-MB-231. The assay is described as follows: Antiproliferative activity against human MDA-MB-231 cells after 72 hrs by Alamar blue/spectrophotometric analysis. It is filed as functional, cell-based. Conditions: MDA-MB-231, 72 h. (In general: Resazurin is reduced to fluorescent resorufin, in cell work by metabolically active cells.)
The subject of another assay is RAW264.7. The assay is described as follows: Antiinflammatory activity against mouse RAW264.7 cells assessed as reduction of LPS-induced IL6 production at 10 uM after 24 hrs by ELISA. In kind it is functional. The conditions noted are these: RAW264.7, 24 h. For orientation: ELISA stands for enzyme-linked immunosorbent assay.

Some results are limits rather than exact numbers.

Usually IC50 stands for the concentration needed to halve the response being measured. What is called inhibition is the relative decrease from the control value, in per cent.

Regarding `CC(=O)CC1Oc2cc(O)ccc2C=C1c1ccc(O)cc1` (centres undefined), the figures for the concentration for half-maximal inhibition (IC50) (in assay [1]; in the assay with MDA-MB-231) were 124 µM and 145 µM, respectively. In addition, the inhibition at 10 µM with RAW264.7 is greater than 50%.
With `CC(C)CC(=O)CC1Oc2cc(O)ccc2C=C1c1ccc(O)cc1` (centres undefined), the concentration for half-maximal inhibition (IC50) was 139 µM in assay [1] and 67 µM in the assay with MDA-MB-231.
For `O=C(CC1Oc2cc(O)ccc2C=C1c1ccc(O)cc1)c1ccccc1` (centres undefined), the IC50 in assay [1] amounted to 102 µM; in the assay on MDA-MB-231, 88 µM.
As to `Cc1ccc(C(=O)CC2Oc3cc(O)ccc3C=C2c2ccc(O)cc2)cc1` (centres undefined), the values for the IC50 (in assay [1]; in the assay on MDA-MB-231) were 60 µM and 55 µM, respectively.
Take `CCc1ccc(C(=O)CC2Oc3cc(O)ccc3C=C2c2ccc(O)cc2)cc1` (centres undefined): the half-inhibitory concentration (IC50) was 377 µM in assay [1] and 198 µM in the assay with MDA-MB-231.
As for `COc1ccc(C(=O)CC2Oc3cc(O)ccc3C=C2c2ccc(O)cc2)cc1` (centres undefined), the half-maximal inhibitory concentration (IC50) was 37 µM in assay [1] and 7.6 µM in the assay on MDA-MB-231. Besides, the inhibition at 10 µM in the assay with RAW264.7 is greater than 50%.
As to `O=C(CC1Oc2cc(O)ccc2C=C1c1ccc(O)cc1)c1ccc(Br)cc1` (centres undefined), the IC50 in assay [1] stood at 33 µM; with MDA-MB-231 it was 37 µM.
Turning to `O=C(CC1Oc2cc(O)ccc2C=C1c1ccc(O)cc1)c1ccc(Cl)cc1` (centres undefined), the figures for the half-inhibitory concentration (IC50) (in assay [1]; with MDA-MB-231) were 167 µM and 151 µM, respectively.
With `O=C(CC1Oc2cc(O)ccc2C=C1c1ccc(O)cc1)c1cccc2ccccc12` (centres undefined), the results for the half-inhibitory concentration (IC50) (in assay [1]; in the assay on MDA-MB-231) were 128 µM and 106 µM, respectively.
In the case of `C/C(CC1Oc2cc(O)ccc2C=C1c1ccc(O)cc1)=N\Nc1ccc([N+](=O)[O-])cc1[N+](=O)[O-]` (centres undefined), the values for the IC50 (in assay [1]; in the assay on MDA-MB-231) were 62 µM and 36 µM, respectively.
For the molecule `Cc1cc(C2Oc3cc(O)ccc3C=C2c2ccc(O)cc2)cc(C)c1N` (centres undefined), the figures for the IC50 (in assay [1]; in the assay on MDA-MB-231) were 102 µM and 53 µM, respectively. Further, the inhibition at 10 µM in the assay on RAW264.7 was greater than 50%.
As for `COc1ccc(C2=C(c3ccc(O)cc3)C(CC(C)=O)Oc3cc(O)ccc32)cc1` (centres undefined), the figures for the 50% inhibitory concentration (IC50) (in assay [1]; with MDA-MB-231) were 69 µM and 39 µM, respectively.
Turning to `Oc1ccc(C2=Cc3ccc(O)cc3OC2)cc1` [IDRONOXIL], the IC50 in assay [1] worked out at 9.9 µM; in the assay on MDA-MB-231 it was 33 µM.
